Tests used:
Type in all cases: in vivo
[1] = tested on: adults of the green stink bug (Piezodorus guildingi); assay: Piezodorus guildingi test, open land (spray treatment); settings: 300 g/ha, soy bean plants
Protocol: (§1) To prepare a suitable active compound preparation 1 part by weight of the active compound is mixed with the given amount of water to the desired concentration.
Soy bean plants (Glycine max) infested with the adults of the green stink bug (Piezodorus guildingi) are treated with an active compound preparation at the desired concentration.
After the desired time the death rate in % is determined. Here 100% means that all bugs were killed; 0% means that no bugs were killed.

[2] = tested on: adult Ctenocephalides felis, strain "Georgi"; assay: Test with cat fleas/oral administration; settings: 100 ppm in citrated bovine blood
Protocol: To prepare a suitable formulation a suitable active compound solution was prepared from 10 mg active compound with 0.5 ml DMSO. 10 μl of this formulation was added to 2 ml citrated bovine blood and stirred.
20 fasting adult fleas (Ctenocephalides felis, strain “Georgi”) were placed in a chamber (Ø5 cm) that is closed with cheese cloth at the top and bottom. A metal cylinder the underside of which is closed with Parafilm is placed on the chamber. The cylinder contains the 2 ml blood-active compound formulation which can be consumed by the fleas through the Parafilm membrane.
Whilst the blood is warmed to 37° C. the region of the flea chamber is at room temperature. Controls were carried out with the same volume of DMSO without compound addition.
After the desired time the death rate in % is determined. Here 100% means that all fleas were killed; 0% means that no fleas were killed.

[3] = tested on: caterpillars of the fall army worm (Spodoptera frugiperda); assay: Spodoptera frugiperda test, treated soil (Example A1); settings: 4 ppm in soil, cotton plant
Protocol: (§2) To prepare a suitable active compound preparation 1 part by weight of the active compound is mixed with the given amount of solvent and emulsifier and the concentrate is diluted to the desired concentration with water.
The active compound preparation is mixed with earth. The concentration given relates to the amount of active compound per unit volume soil (mg/l=ppm). The treated earth is filled into pots and planted with a cotton plant (Gossypium hirsutum). After a week infection is carried out with caterpillars of the fall army worm (Spodoptera frugiperda).
After the desired time the activity in % is determined. Here 100% means that no eating damage is visible, 0% means that eating damage on the treated plants corresponds to that of the controls.

[4] = tested on: white fly (Bemisia tabaci), normal sensitive strain; assay: Bemisia tabaci test (normal sensitive strain), spraying of infested cotton plants; settings: 100 ppm, spray on cotton plants
Protocol: (§3) To prepare a suitable active compound preparation 1 part by weight of the active compound is mixed with the given amount of solvent and emulsifier and the concentrate is diluted to the desired concentration with water containing emulsifier.
Cotton plants (Gossypium hirsutum) that are infested with eggs, larvae and pupae of the white fly (Bemisia tabaci) are treated by, spraying with the active compound preparation at the desired concentration.
(§4) After the desired time the death rate in % is determined. Here 100% means that all animals were killed; 0% means that no animals were killed.

[5] = tested on: horse chestnut scale (Pulvinaria regalis); assay: Pulvinaria regalis test, preparation poured onto chestnut trees (Example C1); settings: 10 mg per plant, poured on
Protocol: as §2
The active compound preparation was poured onto chestnut trees (Castanea vesca). The concentration given relates to the amount of active compound per plant. After a defined time infection was carried out with horse chestnut scale (Pulvinaria regalis).
as §4

[6] = tested on: white fly (Bemisia tabaci, resistant strain); assay: Bemisia tabaci test (resistant strain), cotton leaf dip; settings: 1000 ppm
Protocol: as §3
Leaf sections of the cotton plant (Gossypium hirsutum) are treated by dipping in the active compound preparation at the desired concentration and after drying of the coating are infected with adults of the white fly (Bemisia tabaci, resistant strain).
as §4

[7] = tested on: Lucilia cuprina larvae; assay: Fly larvae test; settings: 100 ppm
Protocol: 10 mg active compound were dissolved in 0.5 ml dimethylsulphoxide. To prepare a suitable formulation the active compound solution is diluted with water to the respective desired concentration.
About 20 Lucilia cuprina larvae are placed in a test tube that contains ca. 1 cm^3 horse flesh and 0.5 ml of the active compound preparation under test.
(§5) After the desired time the death rate in % is determined. Here 100% means that all larvae were killed; 0% means that no larvae were killed.

[8] = tested on: black bean aphid (Aphis fabae); assay: Aphis fabae test (seed application), Example J; settings: 90 g ai/unit (100,000 seeds), sugar beet seed treatment
Protocol: as §2
Sugar beet seed (Beta vulgaris) is treated with the active compound preparation and sown into soil. After ca. 4 week the beet plants are infected with the black bean aphid (Aphis fabae).
(§6) After the desired time the death rate in % is determined. Here 100% means that all aphids were killed; 0% means that no aphids were killed.

[9] = tested on: mealy cabbage aphid (Brevicoryne brassicae); assay: Brevicoryne brassicae test, open land (drench application); settings: 0.04 g/plant, drench on cabbage plants
Protocol: as §1
Cabbage plants (Brassica oleracea) that are infested with all stages of the mealy cabbage aphid (Brevicoryne brassicae) are drenched with an active compound preparation at the desired concentration.
as §6

[10] = tested on: white fly (Bemisia tabaci), all stages; assay: Bemisia tabaci test, open land (spray treatment); settings: 300 g/ha, spray on paprika plants
Protocol: as §1
Paprika plants (Capsicum annuum) that are infested with all stages of the white fly (Bemisia tabaci) are sprayed with an active compound preparation at the desired concentration.
After the desired time the death rate in % is determined. Here 100% means that all white fly were killed; 0% means that no white fly were killed.

[11] = tested on: codling moth larvae (Cydia pomonella); assay: Cydia pomonella test, treated feed; settings: 20 ppm in feed
Protocol: as §2
The active compound preparation was mixed with feed. The concentration given relates to the amount of active compound per unit volume feed (mg/l=ppm). The treated feed is placed in Petri dishes and infected with codling moth larvae (Cydia pomonella).
as §5

[12] = tested on: larvae of the Colorado beetle (Leptinotarsa decemlineata); assay: Leptinotarsa decemlineata larvae test, spraying of potato leaves; settings: 60 g ai/ha, spray on potato leaves
Protocol: as §3
Leaves of potato plants (Solanum tuberosum) that are infested with the larvae of the Colorado beetle (Leptinotarsa decemlineata) are treated by spraying with the active compound preparation at the desired concentration.
After the desired time the activity in % is determined. Here 100% means that all beetle larvae were killed; 0% means that no beetle larvae were killed.

[13] = tested on: adult Musca domestica, strain WHO(N), sensitive; assay: Test with flies; settings: 100 ppm; after 48 hours
Protocol: 10 mg of the active compound are dissolved in 0.5 ml dimethylsulphoxide, lower concentrations are prepared by dilution with water.
0.2 ml of this active compound preparation is pipetted onto a sponge (ca. Ø1.5 cm) that has been wetted with 0.8 ml sugar solution. The sponge and 10 test animals are transferred to a dish (4×4 cm, h 2 cm) and covered.
After 48 hours the activity of the active compound preparation is determined. Here 100% means that all flies were killed; 0% means that no flies were killed.

[14] = tested on: black bean aphid (Aphis fabae); assay: Aphis fabae test (seed application), Example D1; settings: 90 g per unit (100,000 seeds), sugar beet seed
Protocol: as §2
Sugar beet seed (Beta vulgaris) is treated with the active compound preparation and sown into the earth. After ca. 4 weeks the beet plants are infected with the black bean aphid (Aphis fabae).
as §6

Compound | death rate after 11 days [1] | death rate after 2 days [2] | activity (eating damage) after 7 days [3] | Death rate in % after 14 d [4] | death rate after 30 days [5] | Death rate in % after 3 d [6] | death rate after 2 days [7] | Activity in % after 7 d [8] | death rate after 35 days [9] | death rate after 65 days [10] | death rate after 7 days [11] | Activity in % after 6 d [12] | activity [13] | death rate after 7 days [14]
CN(Cc1ccc(Cl)nc1)C1=CC(=O)OC1 [Compound 84] | 100% | 100% | 98% | 100% | 100% | 78% | 100% | 100% | 100% | 93% | 100% | 100% | 80% | 
O=C1C=C(N(Cc2ccc(Cl)nc2)C2CC2)CO1 [Compound 88] |  |  |  |  |  |  | 100% |  | 97% | 93% | 90% | 100% |  | 100%
